Laboratory results reported in patent US7875587B2, “Peptide analogues of GIP for treatment of diabetes, insulin resistance and obesity” (UUTECH Limited, priority 2004, dated 2011).
No end group written: not given here.

Tests used:
BRIN-BD11 cells = experiment: GIP-stimulated insulin release from BRIN-BD11 cells (antagonism); type: cell-based; settings: 5.6 mM glucose, native GIP 10^-7 M
Experimental: Tissue culture. […] Cells were maintained in sterile tissue culture flasks (Corning Glass Works, Sunderland, UK) at 37° C. in an atmosphere of 5% CO2 and 95% air using an LEEC incubator (Laboratory Technical Engineering, Nottingham, UK). Acute studies of insulin release. Insulin release from BRIN-BD11 cells was determined using cell monolayers ([…]. et al., 1996, Diabetes 45:1132-1140). Cells were harvested with the aid of trypsin/EDTA (Gibco), seeded into 24-multiwell plates (Nunc, Roskilde, Denmark) at a density of 1.0×10^5 cells per well, and allowed to attach overnight at 37° C.

ob/ob mice = experiment: Once daily i.p. (Pro3)GIP over 11 days in ob/ob mice (Example 5); type: in vivo, mouse
Experimental: Animals. Obese diabetic (ob/ob) mice derived from the colony maintained at Aston University, UK (Bailey, C. J., et al., 1982, Int. J. Obes. 6:11-21) were used at 12-16 weeks of age. Animals were age-matched, divided into groups and housed individually in an air-conditioned room at 22±2° C. with a 12 hour light: 12 hour dark cycle. Drinking water and a standard rodent maintenance diet (Trouw Nutrition, Cheshire, UK) were freely available. All animal experiments were carried out in accordance with the UK Animals (Scientific Procedures) Act 1986.
Experimental protocols for ob/ob mouse studies. Initially, extended biological activity of (Pro^3)GIP was examined in 18-hour fasted ob/ob mice 4 hours after administration. Thereafter, over an 11-day period, mice received once daily i.p. injections (17:00 hours) of either saline vehicle (0.9% (w/v), NaCl) or (Pro^3)GIP (25 nmol/kg body wt). During a subsequent 9-day period, observations were continued following discontinuation of (Pro^3)GIP administration. Food intake and body weight were recorded daily whilst plasma glucose and insulin concentrations were monitored at intervals of 2-6 days. Whole blood for the measurement of glycated hemoglobin was taken on days 11 and 20. Intraperitoneal glucose tolerance (18 mmol/kg body wt), metabolic response to native GIP (25 nmol/kg body wt) and insulin sensitivity (50 U/kg body wt) tests were performed on days 11 and 20. Mice fasted for 18 hours were used to examine the metabolic response to 15 minutes feeding. In a separate series, pancreatic tissues were excised at the end of the 11-day treatment period or 9 days following discontinuation of (Pro^3)GIP and processed for immunohistochemistry or measurement of insulin following extraction with 5 ml/g of ice-cold acid ethanol (750 ml ethanol, 235 ml water, 15 ml concentrated HCl). Blood samples taken from the cut tip of the tail vein of conscious mice at the times indicated in the Figures were immediately centrifuged using a Beckman microcentrifuge (Beckman Instruments, UK) for 30 seconds at 13,000 g. The resulting plasma was then aliquoted into fresh Eppendorf tubes and stored at −20° C. prior to glucose and insulin determinations.
Biochemical analysis. Plasma glucose was assayed by an automated glucose oxidase procedure (Stevens, J. F., 1971, Clin. Chem. Acta 32:199-201) using a Beckman Glucose Analyzer II (Beckman Instruments, Galway, Ireland). Plasma and pancreatic insulin were assayed by a modified dextran-coated charcoal radioimmunoassay (Flatt, P. R. et al., 1981, Diabetologia 20:573-577). Glycated hemoglobin was determined using cation-exchange columns (Sigma, Poole, Dorset, UK) with measurement of absorbance (415 nm) in wash and eluting buffer using a VersaMax Microplate Spectrophotometer (Molecular Devices, Wokingham, Berkshire, UK).
Immunocytochemistry. Tissue fixed in 4% paraformaldehyde/PBS and embedded in paraffin was sectioned at 8 μm. After de-waxing, sections were incubated with blocking serum (Vector Laboratories, Calif., USA) prior to exposure to insulin antibody. Tissue samples were then incubated consecutively with secondary biotinylated universal, pan-specific antibody (Vector Laboratories, Calif., USA) and streptavidin/peroxidase preformed complex (Vector Laboratories, Calif., USA). Following washing, the stained pancreatic tissue was counterstained with hematoxylin (BDH Chemicals, Dorset, UK) and then plunged into acid methanol (500 ml methanol, 500 ml H2O and 2.5 ml concentrated HCl) prior to dehydration and mounting in Depex (BDH Chemicals, Dorset, UK). The stained slides were viewed under a microscope (Nikon Eclipse E2000, Diagnostic Instruments Incorporated, Michigan, USA) attached to a JVC camera Model KY-F55B (JVC, London, UK) and analyzed using Kromoscan imaging software (Kinetic Imaging Limited, Faversham, Kent, UK). […]

[1] = 4 hours after 25 nmoles/kg, 18 h fasted, vs saline

YAPGTFISDYSIAMDKIHQQDFVNWLLAQKGKKNDWKHNITQ [(Pro^3)GIP]
inhibition of GIP-stimulated insulin secretion (BRIN-BD11 cells): inhibited in dose-dependent fashion
reduction of non-fasting plasma glucose levels (ob/ob mice; 25 nmol/kg/day i.p., 11 days, vs controls): 1.6 fold
reduction of overall glycemic excursion (AUC) to a glucose load (ob/ob mice; 25 nmol/kg/day i.p., 11 days, vs controls (abstract of Example 5)): 1.6 fold
decrease of AUC insulin in response to native GIP with glucose (ob/ob mice; [1]): 25%
increase of AUC glucose in response to native GIP with glucose (ob/ob mice; [1]): 151%
glycated hemoglobin (ob/ob mice; 9 days following cessation of daily injection): 7.7±0.4%
average islet diameter (ob/ob mice; 11 days treatment): markedly and significantly reduced
enhancement of insulin sensitivity (ob/ob mice; 11 days treatment): 1.6 fold
islet number per pancreatic section (ob/ob mice; 11 days treatment): No significant differences
lowering of overall plasma glucose response to feeding (ob/ob mice; 11 days treatment): 1.4 fold
lowering of overall plasma insulin response to feeding (ob/ob mice; 11 days treatment): 1.5 fold
pancreatic weight (ob/ob mice; 11 days treatment): no effect
plasma insulin AUC 0-60 minutes after i.p. glucose (ob/ob mice; 11 days treatment): significantly decreased
reduction of pancreatic insulin content (ob/ob mice; 11 days treatment): 1.3 fold
reduction of plasma glucose AUC 0-60 minutes after i.p. glucose (ob/ob mice; 11 days treatment, glucose 18 mmoles/kg, vs controls): 2.1 fold
hypoglycemic action of insulin (AUC and post injection values) (ob/ob mice; 11 days treatment, insulin 50 U/kg i.p.): significantly (P<0.05) augmented
pancreatic insulin content (ob/ob mice; 11 days treatment, vs controls): significantly (P<0.05) decreased
glycated hemoglobin (ob/ob mice; after 11 days treatment): 6.9±0.2%
glycated hemoglobin (ob/ob mice; before treatment): 8.0±0.3%
body weight (ob/ob mice; daily 25 nmol/kg, 11 days): no effect
food intake (ob/ob mice; daily 25 nmol/kg, 11 days): no effect
non-fasting plasma glucose (ob/ob mice; day 11): significantly reduced
plasma insulin levels (ob/ob mice; during or after the treatment period): No significant changes
adverse effects (ob/ob mice; following administration to ob/ob mice): No adverse effects were observed
increase in the glucose-lowering action of exogenous insulin (ob/ob mice; insulin sensitivity test after 11 days): 57%
